Test [1] deals with HCT116 cells. As to the kind of experiment: TMRE mitochondrial membrane potential assay. The format is cell-based, human. The settings on record: 10 μM, 24 h. The method, then: HCT116 cells were cultured as above with indicated inhibitors and subject to the tetramethylrhodamine ethyl ester dye method (TMRE) membrane potential assay according to the manufacturers instruction (Abcam ab113852) prior to FACS analysis.

For test [2], the system named is HCT116 cells. As to the kind of experiment: Mitochondrial respiration (Seahorse XF24). The format is cell-based, human. The settings on record: 10 μM. The method, then:
Extracellular acidification and oxygen consumption rates (ECAR and OCR) were measured in a XF24 extracellular flux analyzer (Seahorse XF24 Extra Cellular Flux Analyzer, North Billerica, MA, USA). Basic XF assay medium was prepared as previously described supplemented with glucose, and the pH adjusted to 7.4 at 37°C. Indicated final concentrations of compounds were obtained by injecting appropriate amounts of compounds dissolved in DMSO or water and diluted in XF assay medium into ports. […] Indicated data points were obtained after 3 min mixing and 2 min wait, followed by 3 min of data collection. Data were normalized to the basal values.

Consider MN58B [reference compound], for which the “TMRE-detectable mitochondrial membrane potential” value in the test on HCT116 cells [1] is given as “decreased”. Moreover, the “mitochondrial respiration immediately after adding inhibitor (acute effect)” value with HCT116 cells [2] was “decreased mitochondrial respiration”.

The values above are taken from PMC5095062, “The novel choline kinase inhibitor ICL-CCIC-0019 reprograms cellular metabolism and inhibits cancer cell growth” (Oncotarget, 2016).
